How the values were obtained:
MDA-MB-231 = assay: cell proliferation, tumor derived cell lines; type: cell-based; details: Homo sapiens, Breast, 72 or 96 hours exposure
Experimental: (§1) Thirty-seven cancer derived cell lines are used (BT474, MDA-MB-361, MDA-MB-453, SKBr3, T47D, MCF7, MDA-MB-231, MDA-MB-468, SK-MEL-5, A375, MALME-3M, SK-MEL-28, WM266.4, RPMI8226, U266, BE, Colo205, HCT116, HT29, MAWI, RKO, U87MG, HN5, RPMI-8226, A549, MV522, NCI-H1299, NCI-H460, 41M, A2780, CHI, NCI-N87, SKOV3, PC3, MO7e, GIST882 and Baf3) to test the effect of 5-(2,4-Dihydroxy-5-isopropyl-phenyl)-4-(4-morpholin-4-ylmethyl-phenyl)-isoxazole-3-carboxylic acid ethylamide. Cell lines are commercially available from American Type Culture Collection (ATCC). These cell lines cover the following 12 cancer or tumor types: breast, melanoma, multiple myeloma (MM), colon, glioblastoma, head & neck, leukemia, lung, ovarian, prostate, stomach and gastrointestinal stromal tumour (GIST). After division and medium change, cells from stock culture are seeded on cell plates and cultured for about 18 hours to allow cell growth and attachment before starting the assay. On the first day of the assay, 5-(2,4-Dihydroxy-5-isopropyl-phenyl)-4-(4-morpholin-4-ylmethyl-phenyl)-isoxazole-3-carboxylic acid ethylamide is added to the medium at various concentrations up to […]. Cells are cultured up to 72 or 96 hours and cell proliferation is determined using commercially available cell proliferation kits.
(§2) The cells were continually exposed to 5-(2,4-Dihydroxy-5-isopropyl-phenyl)-4-(4-morpholin-4-ylmethyl-phenyl)-isoxazole-3-carboxylic acid ethylamide for either 72 or 96 hours and cell growth was determined by commercially available kits based on either SRB, Alamar blue, methylene blue or WST-1 methods.

BT474 = assay: cell proliferation, tumor derived cell lines; type: cell-based; details: Homo sapiens, BT-474, Breast, 72 or 96 hours exposure
Experimental: as §1, §2

NCI-N87 = assay: cell proliferation, tumor derived cell lines; type: cell-based; details: Homo sapiens, Stomach, 72 or 96 hours exposure
Experimental: as §1, §2

MDA-MB-468 = assay: cell proliferation, tumor derived cell lines; type: cell-based; details: Homo sapiens, Breast, 72 or 96 hours exposure
Experimental: as §1, §2

Baf3 = assay: cell proliferation, tumor derived cell lines; type: cell-based; details: Mus musculus, Gastrointestinal stromal tumour (GIST), 72 or 96 hours exposure
Experimental: as §1, §2

LXFE 1422 = assay: clonogenic assay, human tumor xenografts in vitro; type: cell-based; details: Lung, non-small cell, LXFE 1422, Squamous cell carcinoma, soft agar, read-out: IC50 (nM), colony formation
Experimental: (§3) The anticancer activity of 5-(2,4-Dihydroxy-5-isopropyl-phenyl)-4-(4-morpholin-4-ylmethyl-phenyl)-isoxazole-3-carboxylic acid ethylamide is evaluated in 30 human tumor xenografts in vitro using a clonogenic assay. In this assay, human cells derived from cancer patients are evaluated for the capacity of 5-(2,4-Dihydroxy-5-isopropyl-phenyl)-4-(4-morpholin-4-ylmethyl-phenyl)-isoxazole-3-carboxylic acid ethylamide to inhibit the formation of 3 dimensional colonies. […] The tumor xenografts which have never been cultured in cell culture plastic dishes are isolated from nude mice. Tumor cell suspensions are prepared and incubated in 24 well plates containing layers of soft agar. Under these conditions a special subpopulation of cells selectively grows to colonies. 5-(2,4-Dihydroxy-5-isopropyl-phenyl)-4-(4-morpholin-4-ylmethyl-phenyl)-isoxazole-3-carboxylic acid ethylamide was tested in 6 concentrations up to […]. The tumor test panel comprises 1 to 6 models of 10 different human tumor or cancer types, which were bladder cancer, colon, liver, non small cell lung (adeno, squamous epithelium and large cell), small cell lung, mammary, ovary, pancreatic, melanoma and pleuramesothelioma. Antitumor effects are recorded as inhibition of colony formation in relation to untreated controls. Further information on the method has been published (Burger et al., 2004; Fiebig et al., 2004; Smith et al., 2005).
(§4) The cells are continually exposed to 5-(2,4-Dihydroxy-5-isopropyl-phenyl)-4-(4-morpholin-4-ylmethyl-phenyl)-isoxazole-3-carboxylic acid ethylamide and colony formation is determined.

LXFA 297 = assay: clonogenic assay, human tumor xenografts in vitro; type: cell-based; details: Lung, non-small cell, LXFA 297, Adeno carcinoma, soft agar, read-out: IC50 (nM), colony formation
Experimental: as §3, §4

MEXF 989 = assay: clonogenic assay, human tumor xenografts in vitro; type: cell-based; details: Melanoma, MEXF 989, Amelanotic melanoma, soft agar, read-out: IC50 (nM), colony formation
Experimental: as §3, §4

CXF 1784 = assay: clonogenic assay, human tumor xenografts in vitro; type: cell-based; details: Colon, CXF 1784, Carcinoma, soft agar, read-out: IC50 (nM), colony formation
Experimental: as §3, §4

LXFA 983 = assay: clonogenic assay, human tumor xenografts in vitro; type: cell-based; details: Lung, non-small cell, LXFA 983, Adeno carcinoma, soft agar, read-out: IC50 (nM), colony formation
Experimental: as §3, §4

PXF 1118 = assay: clonogenic assay, human tumor xenografts in vitro; type: cell-based; details: Pleuramesothelioma, PXF 1118, Biphasic pleuramesothelioma, soft agar, read-out: IC50 (nM), colony formation
Experimental: as §3, §4

MEXF 462 = assay: clonogenic assay, human tumor xenografts in vitro; type: cell-based; details: Melanoma, MEXF 462, Amelanotic melanoma, soft agar, read-out: IC50 (nM), colony formation
Experimental: as §3, §4

MAXF 401 = assay: clonogenic assay, human tumor xenografts in vitro; type: cell-based; details: MAXF401, Breast, MAXF 401, Pap. adeno carcinoma, soft agar, read-out: IC50 (nM), colony formation
Experimental: as §3, §4

BN472 xenograft = assay: antitumor effect in the rat breast cancer model BN-472; type: in vivo; details: for T/C (%) / ΔTumor volume (mm^3): qw, i.v.; for ΔTumor volume (mm^3): mean ±SEM
Experimental: The transplantable rat breast cancer tumor BN472 is serially passaged as fragments in female syngeneic Brown Norway rats. The injection site is orthotopically in the mammary fat pad. Treatment with AUY922 is initiated when the average tumor volume reaches approximately 100 mm^3. Tumor growth is monitored at regular intervals. The xenograft tumor sizes are measured manually with calipers and the tumor volume is estimated using the formula: (W×L^2×π/6), where width (W) and height (H) are the two largest diameters. Results are presented as mean ±SEM. Tumor data were analyzed by ANOVA with post hoc Dunnet's test for comparison of treatment versus control group. As a measure of efficacy the % T/C value is calculated at the end of the experiment according to: (Δtumor volumetreated/Δtumor volumecontrol)*100 where Δtumor volumes represent the mean tumor volume on the evaluation day minus the mean tumor volume at the start of the experiment. The antitumor effect of AUY922 is evaluated in the BN472 xenograft model. Each group consists of seven tumor bearing animals. At the end of the study, the tumor sizes in the treatment groups are compared to those of the vehicle treated groups and the effect is expressed as %T/C.

IC50 (MDA-MB-231): 7.7 nM
IC50 (BT474): 2.8 nM
IC50 (NCI-N87): 0.2 nM
IC50 (MDA-MB-468): 3.5 nM
IC50 (Baf3): 22.4 nM
IC50 (LXFE 1422): 48 nM
IC50 (LXFA 297): 28 nM
IC50 (MEXF 989): 2 nM
IC50 (CXF 1784): 418 nM
IC50 (LXFA 983): 126 nM
IC50 (PXF 1118): 223 nM
IC50 (MEXF 462): 24 nM
IC50 (MAXF 401): 78 nM
Compound: CCNC(=O)c1noc(-c2cc(C(C)C)c(O)cc2O)c1-c1ccc(CN2CCOCC2)cc1 [AUY922, 5-(2,4-Dihydroxy-5-isopropyl-phenyl)-4-(4-morpholin-4-ylmethyl-phenyl)-isoxazole-3-carboxylic acid ethylamide]
T/C (%) (BN472 xenograft; 25 mg/kg): 78%
ΔTumor volume (mm^3) (BN472 xenograft; 25 mg/kg): 4357 ± 1338 mm^3
T/C (%) (BN472 xenograft; 50 mg/kg): 21%
ΔTumor volume (mm^3) (BN472 xenograft; 50 mg/kg, *P < 0.05): 1148 ± 152* mm^3
reduction of tumor sizes versus vehicle (BN472 xenograft; once per week at 50 mg/kg): Statistically significant reduction of tumor sizes

Reference: patent publication US20160045513A1, “ISOXAZOLE COMPOUND FOR THE TREATMENT OF CANCER” (Novartis AG, priority 2007, published 2016)
